According to US20220119446A1, “BIOMARKERS AND TREATMENT OF NEURONAL INJURY AND NEURODEGENERATION” (Board of Supervisons of Louisiana State University and …, priority 2018, published 2022):
Entries after “also recorded” stand apart in the source; their conditions may differ. * marks the point of attachment. Boc = CC(C)(C)OC(=O)*

B1: Wnt5a: Recombinant Human/Mouse Wnt-5a Protein, CHO-derived (Gln38-Lys380), R&D systems 645-WN (protein)
chain: QVVIEANSWWSLGMNNPVQMSEVYIIGAQPLCSQLAGLSQGQKKLCHLYQDHMQYIGEGAKTGIKECQYQFRHRRWNCSTVDNTSVFGRVMQIGSRETAFTYAVSAAGVVNAMSRACREGELSTCGCSRAARPKDLPRDWLWGGCGDNIDYGYRFAKEFVDARERERIHAKGSYESARILMNLHNNEAGRRTVYNLADVACKCHGVSGSCSLKTCWLQLADFRKVGDALKEKYDSAAAMRLNSRGKLVQVNSRFNSPTTQDLVYIDPSPDYCVRNESTGSLGTQGRLCNKTSEGMDGCELMCCGRGYDQFKTVQTERCHCKFHWCCYVKCKKCTEIVDQFVCK

How the values were obtained:
Type in all cases: cell-based, human
[1] = tested on: COX-2 promoter; assay: COX-2 promoter luciferase reporter assay; conditions: for COX-2 promoter activity (luciferase): hRPE cells, +/− 100 nM and 200 nM NPD1
Description: (§1) Except TOP/FOP flash, the Luciferase activity can be standardized using a construct expressing GFP constitutively under CMV virus promoter. To assess luciferase activity, cell lysates can be obtained using Passive Lysis Buffer (Promega, Madison, Wis.) and mixed with a luciferase assay reagent (Promegam Madison, Wis.). Chemiluminescence produced by luciferase and fluorescence from GFP can be detected using Appliscan 2.3. Data can be analyzed using SkanIt 2.3 (Thermo Fisher Scientific, Waltham, Mass.).
A, Design of luciferase reporter assay performed with COX-2 promoter construct. UOS was induced by the addition of 10 ng/ml TNFα and 600 μM H2O2 in ARPE-19 cells. The concentrations of Wnt5a used was 50 ng/ml. Cells were co-transfected with the constructs driving the expression of luciferase and a plasmid that constitutively expressed green fluorescent protein for standardization. Luciferase activity is denoted in luciferase activity units (LUC) and standardized using GFP fluorescent (GFP). B, Wnt5a and IL-1β effect time course on COX-2 promoter activity. […] Luciferase activity (LUC) was measured in ARPE-19 cells in the presence of 50 ng/ml Wnt5a or 20 ng/ml IL1-β. […] Luciferase activity measured in cells incubated with 50 ng/ml Wnt5a in the presence or absence of 100 nM (+) and 200 nM (++) NPD1.

[2] = tested on: NF-κB/p65; assay: NF-κB/p65 luciferase reporter assay in hpRPE cells
Description: We asked if Wnt5a activates inflammatory signaling to enhance apoptosis mediated by UOS by assessing COX-2 promoter activation (FIG. 10). […] To compare Wnt5a effects with other cytokines that enhance COX-2 expression, Interleukin-1β (IL-1β) activity was measured. […] To determine if Wnt5a activates NF-κB, hpRPE were transfected with a construct that encompassed three p65 high-affinity binding sites in tandem, driving the expression of the luciferase reporter gene (FIG. 1G). […] To assess whether or not FDZ5 and ROR2 were involved in NF-κB activation by Wnt5a, cells were co-transfected with siRNAs targeting the two receptors (FIG. 11).
as §1
Except TOP/FOP flash, the Luciferase activity was standardized using a construct expressing GFP constitutively under CMV virus promoter. To assess luciferase activity, cell lysates were obtained using Passive Lysis Buffer (Promega) and mixed with a luciferase assay reagent (Promega). Chemiluminescence produced by luciferase and fluorescence from GFP was detected using Appliscan 2.3. Data were analyzed using SkanIt 2.3 (Thermo Fisher Scientific).

[3] = tested on: Wnt5a promoter A; assay: ChIP assay of cRel binding to Wnt5a promoter A with real-time PCR; conditions: for cRel bound to genomic DNA, amplicon 3: RPE cells undergoing UOS, NPD1 added
Description: Based on the regions found to bind NF-κB members (Table 4), we designed four sets of primers that bound in the proximity or within the regions of interest to perform SYBR green-based real-time PCR detection (FIG. 2, D-F and Table 3). FIGS. 2, D and F and Table 5, also show regions of high probability for methylation, a mechanism for blocking Wnt5a transcription (Vaidya et al. 2016). Micrococcal […] digested genomic DNA fragments from UOS or UOS-plus-NPD1-treated RPE cells, +/−rWnt5a, were pulled down by an antibody against cRel and used to test the four sets of primers. […] Methylation of Region 1 may occur since it was predicted by the Methprimer software (Table 5). […] The results obtained for amplicon 3, indicate competition between the Wnt5a-activated p65 and NPD1-activated cRel (FIG. 2E).
The chromatin immunoprecipitation assay can be performed using SimpleChIP® Plus Enzymatic Chromatin IP Kit (Cell Signaling Technology, Boston, Mass.) following the manufacturer's recommendations including ChIP validated cRel antibody. Positive control Histone H3 antibody and normal serum can be provided by a kit, as well as control primers for human RPL30 Exon 3. Primers A1 to 4 can be designed using Primer-Blast (NCBI, Bethesda, Md.)((Ye et al. 2012) and are depicted in Table 5. The immunoprecipitated samples real-time PCR values can be standardized using 10% of the input chromatin preparation using primers A1, A2, and A3 pooled values and RPL30 Exon 3 values.
The chromatin immunoprecipitation assay was performed using SimpleChIP® Plus Enzymatic Chromatin IP Kit (Cell Signaling Technology, Boston, Mass., USA) following the manufacturer's recommendations including ChIP validated cREL antibody. Positive control Histone H3 antibody and normal serum was provided by the kit, as well as control primers for human RPL30 Exon 3. Primers A1 to 4 were designed using Primer-Blast at NCBI platform (Ye et al., 2012) and are depicted in Table S5. The immunoprecipitated samples real-time PCR values were standardized using 10% of the input chromatin preparation using primers A1, A2, and A3 pooled values and RPL30 Exon 3 values.

[4] = tested on: FZD5; assay: Western blot of FZD5 protein in hpRPE cells under UOS
Description: The pellet was re-suspended and denatured in 100 μl of 2× Laemmli sample buffer (Bio-Rad Laboratories) at 95° C. for 5 min. MCAo brain tissue and cell samples were homogenized using RIPA (Thermo Fisher Scientific) buffer supplemented with protease and phosphatase inhibitor cocktails (Sigma). The amount of 30 μg of total protein was loaded in NuPAGE® Novex® 4-12% Bis-Tris precast gels (Life Technologies Corporation) or Mini-PROTEAN TGX Stain free gels 4-15% and ran at constant 120V for 1 hour and 20 min or 250 V for 40 min respectively. Proteins were transferred to μm Nitrocellulose or LF-PVDF membrane using Bio-Rad Trans-Blot® Turbo™ System (Bio-Rad Laboratories). ECL™ Plex Fluorescent Rainbow Markers (GE Healthcare) were used as the ladder for protein's molecular weight. Membranes were blocked using 5% non-fat dry milk (Bio-Rad Laboratories) in TBS with 1% Tween® 20 (TBST-10X) for 1 hour and incubated overnight with primary antibodies. Anti-mouse or anti-rabbit secondary antibodies conjugated with Cy3 or Cy5 were used to visualize the protein of interest. Immunoblots were documented using LAS 4000 imaging system (GE Healthcare Life Sciences) or ChemiDoc MP Imaging System (BioRad Laboratories). A time course exposition was produced in each case to prevent quantification of saturated images. Densitometry data was obtained using ImageQuant™ TL software and XRS Blot Chemi Software (BioRad Laboratories).

[5] = hpRPE under UOS in the presence of Wnt5a 50 ng/ml, NPD1 100 or 200 nM, Pitstop2 25 μM

Row | Molecule | COX-2 promoter activity (luciferase) ([1]; 50 ng/ml Wnt5a) | NF-κB/p65 activation (luciferase) [2, 5] | NF-κB activation in cells co-transfected with ROR2 and FZD5 siRNAs ([2]; hpRPE under UOS, double knockdown) | NF-κB/p65 activation (luciferase) ([2]; hpRPE under UOS, no Wnt5a added) | cRel bound to genomic DNA, amplicon 2 (Region 3 and 4) ([3]; RPE cells under UOS, NPD1 100 nM) | cRel binding, amplicon 4 ([3]; RPE cells undergoing UOS in the presence of rWnt5a) | cRel bound to genomic DNA, amplicon 3 ([3]; Wnt5a present) | cRel bound to genomic DNA, amplicon 3 ([3]; absence of Wnt5a) | cRel binding to genomic DNA, amplicon A1 ([3]; RPE cells, UOS or UOS plus NPD1, +/−rWnt5a) | FZD5 protein abundance ([4]; 100 nM NPD1, Wnt5a present) | FZD5 protein abundance ([4]; 100 nM NPD1, absence of Wnt5a) | FZD5 protein abundance ([4]; Box5, even in the presence of Wnt5a 50 ng/ml) | time of peak COX-2 promoter activity after addition ([1]; ARPE-19 cells, 50 ng/ml Wnt5a) | COX-2 promoter activation (luciferase) ([1]; ARPE-19 cells, 50 ng/ml Wnt5a or 20 ng/ml IL1-β)
1 | CC/C=C\C[C@H](O)\C=C/C=C/C=C/[C@H](O)C/C=C\C/C=C\CCC(=O)O [NPD1, 10R,17S-dihydroxy-docosa-4Z,7Z,11E,13E,15Z,19Z-hexaenoic acid] | down by half; also recorded: prevents Wnt5a-induced activation of COX-2 promoter | reduced luciferase activity; also recorded: affects its activation when Wnt5a is added | not affected | did not affect NF-κB/p65; also recorded: does not prevent activation of NF-κB triggered by UOS; also recorded: did not affect NFkB/p65 | twice the amount of cRel bound | restored the cRel binding to control levels | 10 fold | more than 20 fold | no differences between treatments | steep decrease in the receptor content | no differences in the FZD5 receptor were observed | – | – | –
2 | t-Boc-NH-Met-Asp-Gly-Cys-Glu-Leu-CO2H (Boc-MDGCEL-OH) [Box5] | – | – | – | – | – | – | – | – | – | – | – | decreased FZD5 abundance by half of the level | – | –
3 | B1 | increased COX-2 activation | heightens NF-κB activation; also recorded: heightened NFkB activation | – | – | – | – | – | – | – | – | – | – | 4 h | induced COX-2 promoter activation
